Source: patent publication US7241771B2, “Oxepane isomer of 42-O-(2-hydroxy)ethyl-rapamycin” (Wyeth, priority 2005, dated 2007)
Values after ≈ are worked out from the molar mass of the structure shown.

Columns and labels:
Assay in all cases: Antifungal activity, microtiter MIC
Assay type in all cases: cell-based
[1] = tested on: Aspergillus flavusr; conditions: Aspergillus flavusr strain S506; RPMI 1640, 35° C., 24–48 hours
Experimental: (§1) Antifungal activity for the compound of this invention was established by evaluation against several strains of fungi. Briefly, the following procedure was used to evaluate such activity. A 96 well microtiter plate was filled (50 μL/well) with RPMI 1640. The compounds to be evaluated were placed in appropriate wells and serial diluted in successive wells to provide several dilutions. The concentrations ranged from […]. An adjusted inoculum of fungi (50 μL) was added to each well and plates were incubated at 35° C. for 24–48 hours.

[2] = tested on: Aspergillus fumigatus; conditions: Aspergillus fumigatus strain ATCC 26933, RPMI 1640, 35° C., 24–48 hours
Experimental: as §1

[3] = tested on: Aspergillus niger; conditions: Aspergillus niger strain ATCC 16404, RPMI 1640, 35° C., 24–48 hours
Experimental: as §1

[4] = tested on: Candida albicans; conditions: RPMI 1640, 35° C., 24–48 hours; for MIC: Candida albicans
Experimental: as §1

[5] = tested on: Candida krussii; conditions: Candida krussii strain 94-2; RPMI 1640, 35° C., 24–48 hours
Experimental: as §1

[6] = tested on: Candida lusitaniae; conditions: Candida lusitaniae strain 94-3, RPMI 1640, 35° C., 24–48 hours
Experimental: as §1

[7] = tested on: Candida parapsilosis; conditions: RPMI 1640, 35° C., 24–48 hours; for MIC: Lodderomyces parapsilosis
Experimental: as §1

[8] = tested on: Candida pseudotropicalis; conditions: Candida pseudotropicalis strain ATCC 28838, RPMI 1640, 35° C., 24–48 hours
Experimental: as §1

[9] = tested on: Candida rugosa; conditions: Candida rugosa strain 94-10, RPMI 1640, 35° C., 24–48 hours
Experimental: as §1

[10] = tested on: Candida tropicalis; conditions: RPMI 1640, 35° C., 24–48 hours
Experimental: as §1

[11] = tested on: Candida zeylanoided; conditions: Candida zeylanoided strain 94-15; RPMI 1640, 35° C., 24–48 hours
Experimental: as §1

[12] = Candida albicans strain ATCC 90028
[13] = Candida parapsilosis strain 94-8
[14] = Candida parapsilosis strain 94-9
[15] = Candida parapsilosis strain ATCC 90018
[16] = Candida tropicalis strain 94-13
[17] = Candida tropicalis strain 94-14

SMILES | Antifungal Activity (MIC) [1] | Antifungal Activity (MIC) [2] | Antifungal Activity (MIC) [3] | Antifungal Activity (MIC) ([4]; Candida albicans strain 94-1) | Antifungal Activity (MIC) ([4]; Candida albicans strain 1063) | Antifungal Activity (MIC) ([4]; Candida albicans strain 1117) | Antifungal Activity (MIC) [4, 12] | Antifungal Activity (MIC) [5] | Antifungal Activity (MIC) [6] | Antifungal Activity (MIC) [7, 13] | Antifungal Activity (MIC) [7, 14] | Antifungal Activity (MIC) [7, 15] | Antifungal Activity (MIC) [8] | Antifungal Activity (MIC) [9] | Antifungal Activity (MIC) [10, 16] | Antifungal Activity (MIC) [10, 17] | Antifungal Activity (MIC) [11] | other results
C[C@@H]1[C@H](O)[C@@H](C)/C=C/C=C/C=C/C=C/C=C/C=C/C=C/[C@H](O[C@@H]2O[C@H](C)[C@@H](O)[C@H](N)[C@@H]2O)C[C@@H]2O[C@](O)(C[C@@H](O)C[C@@H](O)[C@H](O)CC[C@@H](O)C[C@@H](O)CC(=O)O[C@H]1C)C[C@H](O)[C@H]2C(=O)O [Amphotericin B] | 0.50 µg/mL | 0.25 µg/mL | 0.25 µg/mL | 0.125 µg/mL | ≦0.06 μg/mL | ≦0.06 μg/mL | 0.125 µg/mL | 0.125 µg/mL | 0.125 µg/mL | ≦0.06 μg/mL | 0.125 µg/mL | ≦0.06 μg/mL | ≦0.06 μg/mL | 0.25 µg/mL | 0.125 µg/mL | 0.125 µg/mL | 0.25 µg/mL | 
COC1CC2CCC(C)C(=O)C(O)(O2)C(=O)N2CCCCC2C(=O)OC(C(C)CC2CCC(OCCO)C(OC)C2)CC(=O)C(C)/C=C(\C)C(O)C(OC)C(=O)C(C)CC(C)/C=C/C=C/C=C/1C (stereo not drawn) [Compound, 1,17-dihydroxy-11-{2-[4-(2-hydroxy-ethoxy)-3-methoxy-cyclohexyl]-1methyl-ethyl}-18,29-dimethoxy-14,16,20,22,28,34-hexamethyl-10,36-dioxa-3-aza-tricyclo[29.4.1.0˜3,8]hexatriaconta-15,23,25,27-tetraen-2,9,13,19,35-pentaone] |  |  |  |  |  |  |  |  |  | 0.125 µg/mL |  |  |  |  | 0.125 µg/mL |  |  | MIC [1]: 8 µg/mL (≈ 8.35 µM); MIC ([2]; ATCC26933): 32 µg/mL (≈ 33.4 µM); MIC ([3]; ATCC16404): 8 µg/mL (≈ 8.35 µM); MIC ([4]; ATCC90028, Candida albicans strain ATCC 90028): 0.125 µg/mL (≈ 0.13 µM); MIC ([4]; Candida albicans strain 94-1): 0.25 µg/mL (≈ 0.261 µM); MIC ([4]; Candida albicans strain 1063): ≤ 0.06 µg/mL; MIC ([4]; Candida albicans strain 1117): 0.125 µg/mL (≈ 0.13 µM); MIC [5]: 0.5 µg/mL (≈ 0.522 µM); MIC ([6]; Clavispora lusitaniae): ≤ 0.06 µg/mL; MIC ([7]; ATCC90018, Candida parapsilosis strain ATCC 90018): 0.25 µg/mL (≈ 0.261 µM); MIC [7, 14]: 0.125 µg/mL (≈ 0.13 µM); MIC ([8]; Kluyveromyces marxianus, ATCC28838): ≤ 0.06 µg/mL; MIC ([9]; Diutina rugosa): 0.25 µg/mL (≈ 0.261 µM); MIC [10, 17]: 0.125 µg/mL (≈ 0.13 µM); MIC [11]: ≤ 0.06 µg/mL
C[C@@H]1[C@H](O)[C@@H](C)/C=C/C=C/CC/C=C/C=C/C=C/C=C/C(O[C@H]2O[C@H](C)[C@@H](O)[C@H](N)[C@@H]2O)CC2O[C@](O)(CC(O)C(O)CCC(O)CC(O)CC(O)CC(=O)O[C@H]1C)CC(O)C2C(=O)O (stereo partly drawn) [Nystatin] | 2 µg/mL | 2 µg/mL | 1 µg/mL | 2 µg/mL | 1 µg/mL | 1 µg/mL | 1 µg/mL | 1 µg/mL | 1 µg/mL | 2 µg/mL | 1 µg/mL | 2 µg/mL | 1 µg/mL | 1 µg/mL | 1 µg/mL | 2 µg/mL | 1 µg/mL | 
